Source: ChEMBL document CHEMBL4184276, “Curcumin inspired 2-chloro/phenoxy quinoline analogues: Synthesis and biological evaluation as potential anticancer agents” (Bioorg Med Chem Lett, 2018)
pIC50: −log10 of the molar value. Active and inactive are the calls of the source. The calls are words filed in the database; no cut-off is given here.

How the values were obtained:
NCI-H460 [1] = experiment: Potency index, ratio of curcumin IC50 to compound IC50 for human NCI-H460 cells; type: functional
PC-3 [2] = experiment: Induction of apoptosis in human PC3 cells assessed as late apoptotic cells at 2 uM after 24 hrs by Annexin V-FITC/propidium iodide staining based flow cytometry (reference value: 7.8%); type: functional
PC-3 [3] = experiment: Potency index, ratio of curcumin IC50 to compound IC50 for human PC3 cells; type: functional
4T1 = experiment: Cytotoxicity against mouse 4T1 cells assessed as reduction in cell viability after 48 hrs by MTT assay; type: functional, cell-based; conditions: 4T1, 48 h
PC-3 [4] = experiment: Induction of apoptosis in human PC3 cells assessed as late apoptotic cells at 4 uM after 24 hrs by Annexin V-FITC/propidium iodide staining based flow cytometry (reference value: 7.8%); type: functional
HeLa = experiment: Cytotoxicity against human HeLa cells assessed as reduction in cell viability after 48 hrs by MTT assay; type: functional, cell-based
PC-3 [5] = experiment: Cell cycle arrest in human PC3 cells assessed as accumulation at G2/M phase after 24 hrs by propidium iodide staining based flow cytometry; type: functional
PC-3 [6] = experiment: Induction of apoptosis in human PC3 cells assessed as cell membrane blebbing at 1 uM after 24 hrs by acridine orange/ethidium bromide staining based fluorescence microscopic method; type: functional
PC-3 [7] = experiment: Induction of apoptosis in human PC3 cells assessed as non-uniform distribution of chromatin at 2 uM after 24 hrs by acridine orange/ethidium bromide staining based fluorescence microscopic method; type: functional, cell-based
PC-3 [8] = experiment: Induction of apoptosis in human PC3 cells assessed as early apoptotic cells at 4 uM after 24 hrs by Annexin V-FITC/propidium iodide staining based flow cytometry (reference value: 7.1%); type: functional
PC-3 [9] = experiment: Cell cycle arrest in human PC3 cells assessed as accumulation at sub-G1 phase at 4 uM after 24 hrs by propidium iodide staining based flow cytometry (reference value: 0.43%); type: functional
PC-3 [10] = experiment: Cell cycle arrest in human PC3 cells assessed as accumulation at S phase at 2 uM after 24 hrs by propidium iodide staining based flow cytometry (reference value: 9.48%); type: functional
PC-3 [11] = experiment: Induction of apoptosis in human PC3 cells assessed as live cells at 4 uM after 24 hrs by Annexin V-FITC/propidium iodide staining based flow cytometry (reference value: 84.82%); type: functional
PC-3 [12] = experiment: Cell cycle arrest in human PC3 cells assessed as accumulation at sub-G1 phase at 2 uM after 24 hrs by propidium iodide staining based flow cytometry (reference value: 0.43%); type: functional
DU-145 [13] = experiment: Cytotoxicity against human DU145 cells assessed as reduction in cell viability after 48 hrs by MTT assay; type: functional, cell-based; conditions: DU-145, 48 h
PC-3 [14] = experiment: Induction of apoptosis in human PC3 cells assessed as necrotic cells at 4 uM after 24 hrs by Annexin V-FITC/propidium iodide staining based flow cytometry (reference value: 0.28%); type: functional
DU-145 [15] = experiment: Potency index, ratio of curcumin IC50 to compound IC50 for human DU145 cells; type: functional
PC-3 [16] = experiment: Induction of apoptosis in human PC3 cells assessed as chromatin condensation at 1 uM after 24 hrs by acridine orange/ethidium bromide staining based fluorescence microscopic method; type: functional, cell-based
PC-3 [17] = experiment: Induction of apoptosis in human PC3 cells assessed as early apoptotic cells at 2 uM after 24 hrs by Annexin V-FITC/propidium iodide staining based flow cytometry (reference value: 7.1%); type: functional
PC-3 [18] = experiment: Cell cycle arrest in human PC3 cells assessed as accumulation at G0/G1 phase at 2 uM after 24 hrs by propidium iodide staining based flow cytometry (reference value: 55.61%); type: functional
PC-3 [19] = experiment: Cell cycle arrest in human PC3 cells assessed as accumulation at S phase at 4 uM after 24 hrs by propidium iodide staining based flow cytometry (reference value: 9.48%); type: functional
PC-3 [20] = experiment: Induction of apoptosis in human PC3 cells assessed as live cells at 2 uM after 24 hrs by Annexin V-FITC/propidium iodide staining based flow cytometry (reference value: 84.82%); type: functional
PC-3 [21] = experiment: Cytotoxicity against human PC3 cells assessed as reduction in cell viability after 48 hrs by MTT assay; type: functional, cell-based; conditions: PC-3, 48 h
PC-3 [22] = experiment: Cell cycle arrest in human PC3 cells assessed as accumulation at G0/G1 phase at 4 uM after 24 hrs by propidium iodide staining based flow cytometry (reference value: 55.61%); type: functional
NCI-H460 [23] = experiment: Cytotoxicity against human NCI-H460 cells assessed as reduction in cell viability after 48 hrs by MTT assay; type: functional, cell-based; conditions: NCI-H460, 48 h
PC-3 [24] = experiment: Induction of ROS generation in human PC3 cells at 1 to 2 uM after 24 hrs by DCFDA staining based flow cytometry; type: functional, cell-based
PC-3 [25] = experiment: Induction of apoptosis in human PC3 cells assessed as condensed and pyknotic nuclei formation at 4 uM after 24 hrs by DAPI staining based fluorescence microscopic method; type: functional, cell-based
[26] = Aqueous solubility in milli-Q water at 2 mg incubated for 5 mins followed by sonication for 1 mins measured after 24 hrs by UV-Visible spectroscopic method; type: physicochemical
PC-3 [27] = experiment: Cell cycle arrest in human PC3 cells assessed as accumulation at G2/M phase at 2 uM after 24 hrs by propidium iodide staining based flow cytometry (reference value: 34.49%); type: functional
PC-3 [28] = experiment: Cell cycle arrest in human PC3 cells assessed as accumulation at G2/M phase at 4 uM after 24 hrs by propidium iodide staining based flow cytometry (reference value: 34.49%); type: functional
PC-3 [29] = experiment: Induction of apoptosis in human PC3 cells assessed as necrotic cells at 2 uM after 24 hrs by Annexin V-FITC/propidium iodide staining based flow cytometry (reference value: 0.28%); type: functional
HGC-27 = experiment: Cytotoxicity against human HGC27 cells assessed as reduction in cell viability after 48 hrs by MTT assay; type: functional, cell-based; conditions: HGC-27, 48 h
PC-3 [30] = experiment: Induction of apoptosis in human PC3 cells assessed as fragmentation of chromatin at 4 uM after 24 hrs by acridine orange/ethidium bromide staining based fluorescence microscopic method; type: functional, cell-based

In the case of `COc1cc(OC)c(OC)cc1/C=C/C(=O)/C=C/c1cc2ccccc2nc1Cl`, the “Ratio IC50” value (NCI-H460 [1]) was 4.3, the Activity (PC-3 [2]) was 18.51% and the “Ratio IC50” value (PC-3 [3]) was 6. It also gave a pIC50 (4T1) of 5.74, an Activity (PC-3 [4]) of 29.17% and a pIC50 (HeLa) of 5.27. The Activity (PC-3 [5]) was “Dose-dependent effect”, the Activity (PC-3 [6]) was “Active” and the Activity (PC-3 [7]) was “Active”. For the same compound, the Activity (PC-3 [8]) was 7.97%, the Activity (PC-3 [9]) was 0.6% and the Activity (PC-3 [10]) was 10.02%. The Activity (PC-3 [11]) was 60.06%, the Activity (PC-3 [12]) was 0.9% and the pIC50 (DU-145 [13]) was 5.40. For the same compound, the Activity (PC-3 [14]) was 2.8%, the “Ratio IC50” value (DU-145 [15]) was 8.3 and the Activity (PC-3 [16]) was “Active”. It also gave an Activity (PC-3 [17]) of 6.07%, an Activity (PC-3 [18]) of 50.4% and an Activity (PC-3 [19]) of 6.86%. For the same compound, the Activity (PC-3 [20]) was 73.21%, the pIC50 (PC-3 [21]) was 5.51 and the Activity (PC-3 [22]) was 46.86%. For the same compound, the pIC50 (NCI-H460 [23]) was 5.40, the Activity (PC-3 [24]) was “Active” and the Activity (PC-3 [25]) was “Active”. For the same compound, the solubility [26] was “Soluble”, the Activity (PC-3 [27]) was 38.16% and the Activity (PC-3 [28]) was 45.74%. For the same compound, the Activity (PC-3 [29]) was 2.21%, the pIC50 (HGC-27) was 5.06 and the Activity (PC-3 [30]) was “Active”.
